Source: patent publication EP4467141A1, “PYRAZOLO-QUINOLINES AS SELECTIVE INHIBITORS OF GENOTOXIC STRESS-INDUCED IKK/NF- KB PATHWAYS FOR CANCER THERAPY” (Max-Delbrück-Centrum für Molekulare Medizin in der …, priority 2023, dated 2024)

Assays:
Assay in all cases: Kinase panel study
Format in all cases: biochemical
Details in all cases: read-out: Percentage of inhibition; for inhibition at 1 µM: 1000nM; for inhibition at 10 µM: 10000nM
[1] = biological target: T1, MAPKAPK2 (Homo sapiens, UniProt P49137)
T1 construct: purchased Thermo Fisher Scientific
Procedure, shortened: (§1)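 Outsourced panel screen. Format: ZLyte or Adapta, run per the manufacturer's procedures. Read-out: inhibition (%) at a single dose of 10 µM or 1 µM; IC50s also generated.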

[2] = biological target: T2, PIK3CA E542K/PIK3R1 (p11 0 alpha E542K/p85 alpha) (Homo sapiens, UniProt P42336, E542K)
T2 construct: purchased Thermo Fisher Scientific
Procedure, shortened: as §1

[3] = biological target: T3, KDR (VEGFR2) (Homo sapiens, UniProt P35968)
T3 construct: purchased Thermo Fisher Scientific
Procedure, shortened: as §1

[4] = biological target: T4, NEK9 (Homo sapiens, UniProt Q8TD19)
T4 construct: purchased Thermo Fisher Scientific
T4 sequence (Q8TD19 1-979): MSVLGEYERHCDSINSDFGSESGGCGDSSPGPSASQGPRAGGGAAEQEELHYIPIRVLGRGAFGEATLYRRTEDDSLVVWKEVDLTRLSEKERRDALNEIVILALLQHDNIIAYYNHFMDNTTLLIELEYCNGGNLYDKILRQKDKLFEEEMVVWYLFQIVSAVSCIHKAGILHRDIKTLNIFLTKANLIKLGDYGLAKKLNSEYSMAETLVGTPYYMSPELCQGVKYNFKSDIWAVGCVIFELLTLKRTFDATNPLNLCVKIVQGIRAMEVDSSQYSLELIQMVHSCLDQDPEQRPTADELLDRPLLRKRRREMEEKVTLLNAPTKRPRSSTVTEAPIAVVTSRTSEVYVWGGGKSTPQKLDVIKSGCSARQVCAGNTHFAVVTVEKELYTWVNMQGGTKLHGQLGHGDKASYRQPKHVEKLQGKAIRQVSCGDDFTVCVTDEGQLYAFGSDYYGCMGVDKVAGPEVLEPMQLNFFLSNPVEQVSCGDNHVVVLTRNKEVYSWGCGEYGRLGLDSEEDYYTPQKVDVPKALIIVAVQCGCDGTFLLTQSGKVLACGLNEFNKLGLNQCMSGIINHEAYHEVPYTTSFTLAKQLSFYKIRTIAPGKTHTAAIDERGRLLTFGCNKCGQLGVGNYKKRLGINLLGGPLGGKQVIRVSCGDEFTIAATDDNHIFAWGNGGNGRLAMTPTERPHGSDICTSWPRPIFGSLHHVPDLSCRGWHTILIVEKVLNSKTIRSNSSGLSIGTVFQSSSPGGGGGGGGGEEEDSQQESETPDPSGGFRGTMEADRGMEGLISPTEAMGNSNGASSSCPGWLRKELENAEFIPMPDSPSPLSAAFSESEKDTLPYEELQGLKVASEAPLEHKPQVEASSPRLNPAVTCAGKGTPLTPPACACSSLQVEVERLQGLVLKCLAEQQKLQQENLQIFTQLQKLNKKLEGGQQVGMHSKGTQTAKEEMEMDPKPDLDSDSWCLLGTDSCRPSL
Procedure, shortened: as §1

[5] = biological target: T5, AMPK (A2/B2/G3) (Homo sapiens, UniProt P54646)
T5 construct: purchased Thermo Fisher Scientific
Procedure, shortened: as §1

[6] = biological target: T6, ABL1 G250E (Homo sapiens, UniProt P00519, G250E)
T6 construct: purchased Thermo Fisher Scientific
Procedure, shortened: as §1

[7] = biological target: T7, PLK1 (Homo sapiens, UniProt P53350)
T7 construct: purchased Thermo Fisher Scientific
Procedure, shortened: as §1

[8] = biological target: T8, LTK (TYK1) (Homo sapiens, UniProt P29376)
T8 construct: purchased Thermo Fisher Scientific
Procedure, shortened: as §1

[9] = biological target: T9, CSNK1G1 (CK1 gamma 1) (Homo sapiens, UniProt Q9HCP0)
T9 construct: purchased Thermo Fisher Scientific
Procedure, shortened: as §1

[10] = biological target: T10, EPHA5 (Homo sapiens, UniProt P54756)
T10 construct: purchased Thermo Fisher Scientific
Procedure, shortened: as §1

[11] = biological target: T11, CDC42 BPA (MRCKA) (Homo sapiens, UniProt Q5VT25)
T11 construct: purchased Thermo Fisher Scientific
Procedure, shortened: as §1

[12] = biological target: T12, PAK1 (Homo sapiens, UniProt Q13153)
T12 construct: purchased Thermo Fisher Scientific
Procedure, shortened: as §1

[13] = biological target: T13, CDK17/cyclin Y (Homo sapiens, UniProt Q00537)
T13 construct: purchased Thermo Fisher Scientific
Procedure, shortened: as §1

T2 sequence (P42336 whole entry E542K): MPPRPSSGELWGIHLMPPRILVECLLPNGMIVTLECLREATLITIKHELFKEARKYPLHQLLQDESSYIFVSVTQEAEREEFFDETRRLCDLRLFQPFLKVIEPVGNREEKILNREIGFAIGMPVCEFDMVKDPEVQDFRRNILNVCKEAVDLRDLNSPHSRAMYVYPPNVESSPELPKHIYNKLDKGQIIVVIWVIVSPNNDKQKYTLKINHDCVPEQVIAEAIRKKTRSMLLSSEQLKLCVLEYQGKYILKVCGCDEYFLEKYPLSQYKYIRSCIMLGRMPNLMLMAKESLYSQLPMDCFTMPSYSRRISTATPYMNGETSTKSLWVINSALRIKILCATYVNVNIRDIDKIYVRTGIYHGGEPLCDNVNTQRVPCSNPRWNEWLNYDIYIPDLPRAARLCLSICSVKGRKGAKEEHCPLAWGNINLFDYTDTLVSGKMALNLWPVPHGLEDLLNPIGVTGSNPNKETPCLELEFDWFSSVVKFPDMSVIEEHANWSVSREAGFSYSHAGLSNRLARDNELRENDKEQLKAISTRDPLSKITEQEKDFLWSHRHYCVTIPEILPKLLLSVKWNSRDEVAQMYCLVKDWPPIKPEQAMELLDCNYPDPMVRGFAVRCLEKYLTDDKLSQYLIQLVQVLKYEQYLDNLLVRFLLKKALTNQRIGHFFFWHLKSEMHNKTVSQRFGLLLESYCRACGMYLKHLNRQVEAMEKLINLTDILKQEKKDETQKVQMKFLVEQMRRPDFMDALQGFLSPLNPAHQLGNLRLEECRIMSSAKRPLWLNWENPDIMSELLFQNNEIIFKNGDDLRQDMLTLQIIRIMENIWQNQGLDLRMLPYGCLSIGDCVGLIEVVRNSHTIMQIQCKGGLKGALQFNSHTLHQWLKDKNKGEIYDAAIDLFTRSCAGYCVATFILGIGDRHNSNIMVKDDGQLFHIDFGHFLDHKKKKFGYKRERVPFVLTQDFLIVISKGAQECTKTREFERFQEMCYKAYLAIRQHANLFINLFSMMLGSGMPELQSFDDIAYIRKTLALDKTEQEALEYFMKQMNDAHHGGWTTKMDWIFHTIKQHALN
T2 sequence (P27986 whole entry partner): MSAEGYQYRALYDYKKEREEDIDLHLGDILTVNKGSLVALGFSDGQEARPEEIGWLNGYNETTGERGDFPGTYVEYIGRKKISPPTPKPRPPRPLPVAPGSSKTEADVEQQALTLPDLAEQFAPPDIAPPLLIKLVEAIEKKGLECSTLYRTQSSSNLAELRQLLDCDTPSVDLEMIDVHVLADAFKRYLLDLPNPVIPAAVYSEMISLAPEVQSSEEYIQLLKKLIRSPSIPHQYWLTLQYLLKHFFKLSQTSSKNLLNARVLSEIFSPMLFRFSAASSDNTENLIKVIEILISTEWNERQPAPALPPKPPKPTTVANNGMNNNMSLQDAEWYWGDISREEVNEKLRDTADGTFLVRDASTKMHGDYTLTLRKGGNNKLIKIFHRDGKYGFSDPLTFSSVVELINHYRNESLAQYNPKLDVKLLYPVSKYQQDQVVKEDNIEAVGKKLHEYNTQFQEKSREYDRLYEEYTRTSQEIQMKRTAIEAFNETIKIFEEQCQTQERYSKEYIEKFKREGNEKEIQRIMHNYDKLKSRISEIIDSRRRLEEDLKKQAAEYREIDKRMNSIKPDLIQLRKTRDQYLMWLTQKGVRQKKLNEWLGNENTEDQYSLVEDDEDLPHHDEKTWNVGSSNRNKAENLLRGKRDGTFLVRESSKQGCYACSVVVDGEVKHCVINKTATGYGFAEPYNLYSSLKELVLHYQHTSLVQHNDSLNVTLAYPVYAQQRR
T13 sequence (Q00537 whole entry): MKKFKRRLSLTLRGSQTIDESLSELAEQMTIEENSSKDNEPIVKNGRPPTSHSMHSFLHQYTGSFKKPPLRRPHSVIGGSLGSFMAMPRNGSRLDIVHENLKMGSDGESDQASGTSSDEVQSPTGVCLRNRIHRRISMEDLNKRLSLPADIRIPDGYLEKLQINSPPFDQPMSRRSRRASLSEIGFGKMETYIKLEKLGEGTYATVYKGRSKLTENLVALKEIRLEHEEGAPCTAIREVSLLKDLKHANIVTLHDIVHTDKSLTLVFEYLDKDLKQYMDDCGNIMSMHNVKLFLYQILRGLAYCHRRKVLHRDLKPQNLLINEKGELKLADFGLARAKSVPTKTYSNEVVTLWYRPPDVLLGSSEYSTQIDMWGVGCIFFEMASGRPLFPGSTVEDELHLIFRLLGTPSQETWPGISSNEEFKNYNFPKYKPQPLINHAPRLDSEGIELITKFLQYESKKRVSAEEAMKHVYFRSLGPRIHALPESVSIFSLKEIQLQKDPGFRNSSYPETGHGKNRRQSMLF
T13 sequence (Q8ND76 whole entry partner): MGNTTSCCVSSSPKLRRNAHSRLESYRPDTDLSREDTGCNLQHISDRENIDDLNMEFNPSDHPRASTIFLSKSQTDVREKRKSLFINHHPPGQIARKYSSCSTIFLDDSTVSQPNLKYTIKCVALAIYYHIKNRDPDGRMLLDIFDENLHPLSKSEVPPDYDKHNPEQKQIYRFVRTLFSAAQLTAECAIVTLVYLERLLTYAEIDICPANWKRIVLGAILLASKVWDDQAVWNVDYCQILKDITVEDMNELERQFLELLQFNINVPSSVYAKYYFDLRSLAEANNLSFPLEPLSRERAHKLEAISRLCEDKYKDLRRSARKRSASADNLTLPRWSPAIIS
T8 sequence (P29376 17-864): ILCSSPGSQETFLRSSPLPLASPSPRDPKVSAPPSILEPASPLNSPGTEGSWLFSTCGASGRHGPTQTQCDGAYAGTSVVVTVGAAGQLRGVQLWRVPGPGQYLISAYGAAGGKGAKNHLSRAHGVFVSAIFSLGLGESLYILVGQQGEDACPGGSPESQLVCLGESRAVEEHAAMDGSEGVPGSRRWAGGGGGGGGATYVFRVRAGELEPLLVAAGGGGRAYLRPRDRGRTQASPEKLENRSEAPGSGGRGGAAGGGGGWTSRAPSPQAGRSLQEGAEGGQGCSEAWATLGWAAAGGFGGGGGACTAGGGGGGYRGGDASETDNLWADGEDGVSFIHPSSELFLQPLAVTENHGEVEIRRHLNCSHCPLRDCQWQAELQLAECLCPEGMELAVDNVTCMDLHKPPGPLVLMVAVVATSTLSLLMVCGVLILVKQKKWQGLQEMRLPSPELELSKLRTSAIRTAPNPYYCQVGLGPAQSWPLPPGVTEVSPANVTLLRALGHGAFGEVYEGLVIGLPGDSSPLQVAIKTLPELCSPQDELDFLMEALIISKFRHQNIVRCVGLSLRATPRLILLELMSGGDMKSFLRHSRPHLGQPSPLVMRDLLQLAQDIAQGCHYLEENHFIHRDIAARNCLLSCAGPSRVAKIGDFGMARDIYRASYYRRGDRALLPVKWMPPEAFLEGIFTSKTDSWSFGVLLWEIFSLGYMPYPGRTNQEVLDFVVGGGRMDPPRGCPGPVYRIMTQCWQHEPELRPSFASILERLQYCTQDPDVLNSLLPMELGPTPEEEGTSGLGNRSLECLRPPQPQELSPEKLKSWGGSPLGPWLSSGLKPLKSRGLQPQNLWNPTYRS
T9 sequence (Q9HCP0 whole entry): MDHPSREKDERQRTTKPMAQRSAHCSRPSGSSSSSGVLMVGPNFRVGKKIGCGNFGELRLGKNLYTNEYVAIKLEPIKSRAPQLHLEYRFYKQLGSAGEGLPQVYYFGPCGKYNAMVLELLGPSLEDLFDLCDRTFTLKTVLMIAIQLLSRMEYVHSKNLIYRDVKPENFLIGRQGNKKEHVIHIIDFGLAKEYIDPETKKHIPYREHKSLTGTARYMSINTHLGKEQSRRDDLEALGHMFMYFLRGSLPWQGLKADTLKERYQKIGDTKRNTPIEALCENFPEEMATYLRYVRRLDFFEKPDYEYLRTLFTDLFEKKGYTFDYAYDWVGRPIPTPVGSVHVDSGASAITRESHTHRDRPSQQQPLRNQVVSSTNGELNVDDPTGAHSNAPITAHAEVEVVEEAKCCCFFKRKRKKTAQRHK
T10 sequence (P54756 25-1037): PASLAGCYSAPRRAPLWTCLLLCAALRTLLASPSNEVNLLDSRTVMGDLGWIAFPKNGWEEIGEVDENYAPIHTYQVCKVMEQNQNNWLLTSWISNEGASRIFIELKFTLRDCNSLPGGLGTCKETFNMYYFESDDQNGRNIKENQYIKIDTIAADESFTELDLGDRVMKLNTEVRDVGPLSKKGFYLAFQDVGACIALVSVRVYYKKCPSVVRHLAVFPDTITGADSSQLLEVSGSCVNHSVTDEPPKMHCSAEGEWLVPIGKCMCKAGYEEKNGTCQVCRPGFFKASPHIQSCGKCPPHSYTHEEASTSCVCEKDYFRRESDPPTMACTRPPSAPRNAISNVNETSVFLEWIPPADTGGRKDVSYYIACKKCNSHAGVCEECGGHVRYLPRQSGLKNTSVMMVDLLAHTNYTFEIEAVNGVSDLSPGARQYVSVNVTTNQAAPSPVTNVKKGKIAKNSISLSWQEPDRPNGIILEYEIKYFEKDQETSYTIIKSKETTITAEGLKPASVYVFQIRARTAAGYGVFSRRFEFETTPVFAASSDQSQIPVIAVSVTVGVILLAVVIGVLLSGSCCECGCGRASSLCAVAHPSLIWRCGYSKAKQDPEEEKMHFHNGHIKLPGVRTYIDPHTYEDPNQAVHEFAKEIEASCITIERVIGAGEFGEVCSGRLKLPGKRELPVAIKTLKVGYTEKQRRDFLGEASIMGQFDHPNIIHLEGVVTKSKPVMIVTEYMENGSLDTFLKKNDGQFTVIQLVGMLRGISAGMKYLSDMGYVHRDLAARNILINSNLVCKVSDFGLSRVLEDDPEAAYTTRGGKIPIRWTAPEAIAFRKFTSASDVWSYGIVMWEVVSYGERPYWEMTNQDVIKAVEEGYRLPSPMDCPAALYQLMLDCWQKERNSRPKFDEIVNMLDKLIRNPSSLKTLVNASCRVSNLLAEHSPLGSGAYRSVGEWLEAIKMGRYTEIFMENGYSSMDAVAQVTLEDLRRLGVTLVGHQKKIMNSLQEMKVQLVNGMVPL

Structure (SMILES): COc1ccc2c(c1OC)c(=O)n1c3ccc(O)cc3c3ccnc2c31 [MW01, 5-Hydroxy-10,11-dimethoxy-9H-benzo[c]indolo[3,2,1-ij][1,5]naphthyridin-9-one]
- inhibition at 1 µM [1]: 3%
- inhibition at 10 µM [1]: 3%
- inhibition at 1 µM [2]: 94%
- inhibition at 10 µM [2]: 96%
- inhibition at 1 µM [3]: 24%
- inhibition at 10 µM [3]: 54%
- inhibition at 1 µM [4]: 4%
- inhibition at 10 µM [4]: 9%
- inhibition at 1 µM [5]: 8%
- inhibition at 10 µM [5]: 18%
- inhibition at 1 µM [6]: 9%
- inhibition at 10 µM [6]: 32%
- inhibition at 1 µM [7]: 5%
- inhibition at 10 µM [7]: 3%
- inhibition at 1 µM [8]: 19%
- inhibition at 10 µM [8]: 44%
- inhibition at 1 µM [9]: 5%
- inhibition at 10 µM [9]: 12%
- inhibition at 1 µM [10]: -4%
- inhibition at 10 µM [10]: 7%
- inhibition at 1 µM [11]: 11%
- inhibition at 10 µM [11]: 15%
- inhibition at 1 µM [12]: 10%
- inhibition at 10 µM [12]: 22%
- inhibition at 1 µM [13]: 3%
- inhibition at 10 µM [13]: 9%

Structure (SMILES): COc1ccc2cc3c(N)nn(C(=O)c4cccc(N(C)C)c4)c3nc2c1 [MW05, (3-Amino-7-methoxypyrazolo[3,4-b]quinolin-1-yl)-[3-(dimethylamino)phenyl]methanone]
- inhibition at 1 µM [1]: 4%
- inhibition at 10 µM [1]: -6%
- inhibition at 1 µM [2]: 22%
- inhibition at 10 µM [2]: 68%
- inhibition at 1 µM [3]: 7%
- inhibition at 10 µM [3]: -15%
- inhibition at 1 µM [4]: 6%
- inhibition at 10 µM [4]: 5%
- inhibition at 1 µM [5]: 4%
- inhibition at 10 µM [5]: -4%
- inhibition at 1 µM [6]: 12%
- inhibition at 10 µM [6]: 0%
- inhibition at 1 µM [7]: 6%
- inhibition at 10 µM [7]: 6%
- inhibition at 1 µM [8]: 7%
- inhibition at 10 µM [8]: -9%
- inhibition at 1 µM [9]: 3%
- inhibition at 10 µM [9]: 6%
- inhibition at 1 µM [10]: -8%
- inhibition at 10 µM [10]: -16%
- inhibition at 1 µM [11]: 9%
- inhibition at 10 µM [11]: 2%
- inhibition at 1 µM [12]: 16%
- inhibition at 10 µM [12]: 2%
- inhibition at 1 µM [13]: 8%
- inhibition at 10 µM [13]: 21%
